Measurements from the NIST ThermoML archive (doi:10.1021/je7004006).

Assay: molar heat capacity at constant pressure
Settings: 101.33 kPa, Crystal, Small (less than 1 g) adiabatic calorimetry

O=C([O-])c1cccnc1.O=C([O-])c1cccnc1.O=C([O-])c1cccnc1.[Cr+3] [chromium nicotinate]
Settings	molar heat capacity at constant pressure [J/K/mol]
78.3 K	123.81
79.58 K	125.36
80.78 K	127.92
83.27 K	130.33
85.75 K	132.64
87.67 K	134.61
88.87 K	136.08
90.15 K	137.63
92 K	139.67
93.27 K	141.41
94.62 K	142.98
95.9 K	144.85
97.32 K	146.89
98.81 K	148.83
100.39 K	151.39
102.33 K	154.15
104.42 K	157.04
106.52 K	159.91
108.56 K	162.72
110.57 K	165.32
112.55 K	168.16
114.51 K	171.37
116.44 K	174.23
118.51 K	177.09
120.7 K	180.42
122.86 K	183.21
125 K	186.13
127.12 K	189.86
129.2 K	192.42
131.27 K	194.83
133.29 K	197.19
135.34 K	199.39
137.35 K	202.21
139.34 K	205.13
141.27 K	208.55
143.29 K	211.67
145.18 K	214.31
147.24 K	217.25
149.26 K	220.52
151.28 K	222.96
153.41 K	226.31
155.54 K	229.13
157.62 K	231.64
159.7 K	235.03
161.75 K	238.11
163.85 K	240.81
165.85 K	243.11
167.87 K	246.05
169.89 K	248.77
171.91 K	251.87
173.84 K	254.46
175.86 K	257.44
177.79 K	260.13
179.73 K	262.72
181.66 K	265.17
183.6 K	268.44
185.62 K	271.07
187.71 K	274.19
189.73 K	277.14
191.82 K	280.35
193.92 K	283.85
196.02 K	286.68
198.11 K	289.66
200.29 K	293.01
202.31 K	295.75
204.32 K	298.67
206.42 K	301.71
208.43 K	304.98
210.45 K	308.04
212.47 K	310.72
214.4 K	313.38
216.42 K	316.97
218.35 K	320.03
220.29 K	324.12
222.3 K	325.43
224.24 K	328.85
226.09 K	332.72
228.83 K	337.34
231.74 K	341.35
234.72 K	345.07
237.78 K	349.99
241.01 K	354.61
244.07 K	360.78
247.13 K	364.57
250.28 K	369.63
253.26 K	373.95
256.33 K	378.71
259.39 K	383.32
262.45 K	388.08
265.52 K	392.41
268.5 K	397.46
271.49 K	402.07
274.55 K	406.39
277.77 K	410.55
280.84 K	415.32
283.98 K	420.08
287.05 K	425.14
290.11 K	429.31
293.25 K	432.73
296.24 K	436.89
299.14 K	441.06
302.2 K	445.38
305.27 K	449.99
308.25 K	453.86
311.39 K	458.92
314.62 K	464.13
317.68 K	468.44
320.91 K	472.31
324.13 K	476.78
327.12 K	480.35
329.78 K	484.81
332.44 K	488.54
335.1 K	492.26
337.84 K	495.98
340.5 K	499.71
343.24 K	503.86
346.06 K	507.44
348.97 K	511.45
351.79 K	514.88
354.53 K	518.75
357.43 K	523.81
360.34 K	528.42
363 K	532.73
365.9 K	536.45
368.64 K	539.88
371.37 K	543.64
374.08 K	547.89
376.98 K	552.51
379.69 K	556.21
382.38 K	559.42
385.12 K	562.83
387.85 K	566.51
390.52 K	569.91
